Measurements taken from PMC6455008, “Methylation at the C-3′ in D-Ring of Strigolactone Analogs Reduces Biological Activity in Root Parasitic Plants and Rice” (Frontiers in Plant Science, 2019).

Key:
Striga hermonthica = assay: Striga emergence in pots under greenhouse conditions (suicidal germination, rice host); type: in vivo; settings: formulated 1.0 μM; for Striga emergence at 10 WAS / decrease in Striga emergence compared to mock at 10 WAS: 10 weeks after sowing; for Striga hermonthica emergence, 5 WAS / Striga hermonthica emergence, 6 WAS / Striga hermonthica emergence, 7 WAS / Striga hermonthica emergence, 8 WAS / Striga hermonthica emergence, 9 WAS / Striga hermonthica emergence, 10 WAS: mean ± SE; for Striga hermonthica emergence, 5 WAS: n=5, 5 weeks after sowing; for Striga hermonthica emergence, 6 WAS: n=5, 6 weeks after sowing; for Striga hermonthica emergence, 7 WAS: n=5, 7 weeks after sowing; for Striga hermonthica emergence, 8 WAS: n=5, 8 weeks after sowing; for Striga hermonthica emergence, 9 WAS: n=5, 9 weeks after sowing; for Striga hermonthica emergence, 10 WAS: n=5, 10 weeks after sowing; for percent decrease in Striga hermonthica emergence over mock, 8 WAS / percent decrease in Striga hermonthica emergence over mock, 9 WAS / percent decrease in Striga hermonthica emergence over mock, 10 WAS: negative = decrease
Method: About 10 mg of (ca 4,000) Striga seeds were thoroughly mixed in 2 L of sand and soil mixture (1:1) and added in 3-L perforated plastic pot containing 0.5 L of clean soil in the bottom. Striga seeds were first preconditioned by giving light irrigation and putting pots at 35°C in greenhouse for 10 days. Each pot was sprayed with 20-ml (1.0 μM) formulated SL analogs up to 10 days at 2-day intervals. A light irrigation was given next day of each application to move the compound to Striga seeds and they were allowed to germinate for suicidal death without host for another 1 week. Then, three rice seedlings (5 days old) were planted in the middle of each pot. The rice plants were grown under normal growth condition (30°C, 70% RH) for 8 weeks. Number of emerged Striga plants in each pot were counted.

Striga seeds = assay: Stability of formulated SL analogs in aqueous solution under storage (Striga germination readout); type: physicochemical, Striga hermonthica; settings: 1.0 μM
Method: The stability of formulated SL analogs was further tested in sand culture. About 1.5 ml of silver sand was added in each of 6 wells of 24-well plates. Then, 800 μl of formulated SL analogs (1.0 μM) was added in each of the six wells. The plates were sealed firmly with para-film, wrapped in aluminum foil, and placed at 30°C from day 1 to day 7. After 7 days, glass fiber discs containing preconditioned Striga seeds were placed on the top of each of the six wells and incubated in the dark at 30°C for 24 h. The germinated and non-germinated seeds were counted from each disc. In addition, the viability of formulated SL analogs was also tested in aqueous solution for 7 weeks at 30°C. About 800-μl aqueous solution of formulated SL analogs (1.0 μM) was added in a black Eppendorf tube weekly up to 6 weeks and incubated at 30°C. On the seventh week, about 50 μl of each analog was applied on a glass fiber disc containing preconditioned Striga seed and put again in the dark in sealed petri plates at 30°C for 24 h. Germinated and non-germinated seeds were counted from each disc.

[1] = Stability of SL analogs in aqueous solution by HPLC; type: physicochemical; settings: pH 6.8, 3-day intervals up to 3 weeks
Method: The SL analogs GR24, AR8, MP13, and MP26 were first tested for their stability by high-performance liquid chromatography (HPLC) in an aqueous solution (50 μgml^−1, pH, 6.8) by adopting the previously described procedure with minor modifications ([Jamil et al., 2018]). Each compound (1 mg) was dissolved in 1-ml acetone, and then […] out of the analog solution were diluted with 150 μl ethanol and 750 μl water. Thereafter, 25 μl Indanol (1 mg ml^−1, internal standard) was spiked in 975-μl test solution. The time course of degradation was monitored by ultra-performance liquid chromatography (UPLC) analysis using a Zorbax Eclipse XDB-C18 column (3.5 μm, 4.6 mm× 150 mm), eluted first by 5% acetonitrile in water for 0.5 min, then by a gradient flow from 5 to 100% acetonitrile within 17.5 min, and by 100% acetonitrile for 5 min. The column was operated at 40°C with a flow rate of 0.35 ml min^−1, and the temperature of auto-sampler was set at 21°C. Compounds eluted from the column were detected with a photodiode array detector, and the relative quantity of non-degraded amount was calculated by integrating corresponding peak areas and comparison with the internal standard Indanol. Stability was monitored at 3-day intervals up to 3 weeks.

Striga = Striga emergence after formulated MP13 in naturally infested farmer's field (pearl millet host); type: in vivo
Method: A naturally Striga-infested farmer’s field was selected near Kouaré research station ([…], 0°30′W) (Fada N’Gourma, Burkina Faso) to test suicidal activity of formulated MP13, taking formulated water treatment as control treatment. After onset of few rains, the field was thoroughly prepared by subsequent ploughing and planking. The experiment was laid out in a randomized complete block design with four plots or replications. Each plot consisted of two 3-m-long mounds and spaced with one mound between rows. Formulated MP13 and normal water (control) were applied twice in each plot (25 ml m^−2) following rains (~10 mm) to get a final concentration of 0.5 μM. Local pearl millet crop was sown at least 1 week after the second application. Data on the number of emerged Striga plants at three counting dates were collected in both fields on a plot basis. The three Striga counts were then used to calculate the average number of emerged Striga plants throughout the season.

Structure (SMILES) | Striga emergence at 10 WAS (Striga hermonthica) | decrease in Striga emergence compared to mock at 10 WAS (Striga hermonthica) | Striga hermonthica emergence, 5 WAS (Striga hermonthica) | Striga hermonthica emergence, 6 WAS (Striga hermonthica) | Striga hermonthica emergence, 7 WAS (Striga hermonthica) | Striga hermonthica emergence, 8 WAS (Striga hermonthica) | Striga hermonthica emergence, 9 WAS (Striga hermonthica) | Striga hermonthica emergence, 10 WAS (Striga hermonthica) | percent decrease in Striga hermonthica emergence over mock, 8 WAS (Striga hermonthica) | percent decrease in Striga hermonthica emergence over mock, 9 WAS (Striga hermonthica) | percent decrease in Striga hermonthica emergence over mock, 10 WAS (Striga hermonthica) | Striga germination rate after 1 week's storage (Striga seeds; 30°C) | stability by HPLC (relative amount of non-degraded analog) [1] | Striga emergence (No. per plot), change vs control (Striga; formulated MP13, 0.5 μM, printed in Figure 8E) | Striga plants counted at the end of the season (Striga; formulated MP13 applied twice, final conc. 0.5 μM, pearl millet, mock field 154) | Striga germination activity after 2 weeks of storage (Striga seeds; 30°C, 2 weeks) | Striga germination rate before storage (Striga seeds) | Striga germination rate after 6 weeks of storage (Striga seeds; 30°C, 6 weeks)
CC1=C(C)C(O/C=C(\C)C=O)OC1=O (centres unmarked) [AR8, reference compound] | 11 plants per pot | around 18% | 0.4±0.2 | 4.4±0.5 | 7.2±1.5 | 10.6±1.5 | 10.8±1.5 | 10.6±1.5 | -4% | -11% | -18% | total loss of activity | slightly less stability than GR24 and MP26 but more than MP13 |  |  |  |  | 
CC1=CC(O/C=C(\C)C=O)OC1=O (centres unmarked) [MP13, (E)-2-methyl-3-[(4-methyl-5-oxo-2,5-dihydrofuran-2-yl)oxy]acrylaldehyde] | six | 52% | 0.0±0.0 | 1.6±1.0 | 2.6±0.6 | 4.8±0.6 | 5.8±0.6 | 6.2±0.7 | -56% | -51% | -52% | 9% | lowest stability throughout the whole 3 weeks of analysis | -41% | 91 plants m^−2 | not detectable | 53% | 
COC(=O)/C=C/C(C)=C/OC1C=C(C)C(=O)O1 (centres unmarked) [MP26, (2E,4E)-methyl 4-methyl-5-(4-methyl-5-oxo-2,5-dihydrofuran-2-yloxy)penta-2,4-dienoate] | four | 69% | 0.0±0.0 | 0.8±0.6 | 1.4±0.4 | 2.6±0.4 | 3.6±0.8 | 4.0±0.9 | -76% | -68% | -69% |  | equal stability as GR24 up to 6 days of incubation |  |  |  | 69% | 4%
